Measurements taken from ChEMBL document CHEMBL1153407, “12-Substituted 2,3-dimethoxy-8,9-methylenedioxybenzo[i]phenanthridines as novel topoisomerase I-targeting antitumor agents” (Bioorg Med Chem, 2009).

Columns and labels:
P388 [1] = test: Cytotoxicity against camptothecin-resistant mouse P388 cells after 4 days by MTT method; type: functional, cell-based; conditions: P388, 96 h
[2] = target: T1, DNA topoisomerase 1 (Homo sapiens) (UniProt P11387); test: Inhibition of human topoisomerase 1 expressed in sf9 cells assessed as drug level causing 10% mediated DNA cleavage relative to topotecan
T1 sequence (whole entry): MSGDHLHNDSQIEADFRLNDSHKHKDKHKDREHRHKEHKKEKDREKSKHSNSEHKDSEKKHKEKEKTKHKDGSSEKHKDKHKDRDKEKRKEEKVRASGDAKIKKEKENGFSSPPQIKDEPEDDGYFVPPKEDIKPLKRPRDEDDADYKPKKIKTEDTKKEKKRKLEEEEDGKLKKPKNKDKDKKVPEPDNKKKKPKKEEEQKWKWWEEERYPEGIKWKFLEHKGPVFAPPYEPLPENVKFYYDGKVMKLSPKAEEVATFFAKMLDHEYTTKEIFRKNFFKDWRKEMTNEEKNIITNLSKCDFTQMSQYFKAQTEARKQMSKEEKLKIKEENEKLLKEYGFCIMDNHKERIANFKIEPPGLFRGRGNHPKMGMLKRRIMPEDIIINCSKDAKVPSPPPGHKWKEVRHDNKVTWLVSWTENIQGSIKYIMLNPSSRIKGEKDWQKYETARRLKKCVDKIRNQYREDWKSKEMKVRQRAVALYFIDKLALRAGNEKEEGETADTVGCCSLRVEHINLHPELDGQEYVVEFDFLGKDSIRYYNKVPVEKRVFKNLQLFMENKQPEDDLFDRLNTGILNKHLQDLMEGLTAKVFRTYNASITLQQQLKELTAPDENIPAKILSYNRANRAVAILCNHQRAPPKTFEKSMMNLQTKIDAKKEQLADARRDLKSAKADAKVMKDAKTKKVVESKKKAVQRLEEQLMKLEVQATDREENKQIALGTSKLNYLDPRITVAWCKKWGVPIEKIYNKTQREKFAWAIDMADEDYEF

[3] = Cytotoxicity against camptothecin-resistant human CPT-K5 cells after 4 days by MTT method; type: functional, cell-based; conditions: CPT-K5, 96 h
[4] = Cytotoxicity against human RPMI8402 cells after 4 days by MTT method; type: functional, cell-based; conditions: RPMI 8402, 96 h
[5] = Cytotoxicity against MDR1 overexpressing human KBV1 cells after 4 days by MTT method; type: functional, cell-based; conditions: KB-V1, 96 h
[6] = Cytotoxicity against human KB3-1 cells after 4 days by MTT method; type: functional, cell-based; conditions: KB 3-1, 96 h
[7] = Cytotoxicity against BCRP overexpressing human KBH5.0 cells after 4 days by MTT method; type: functional, cell-based; conditions: KBH5.0 cell, 96 h
P388 [8] = test: Cytotoxicity against mouse P388 cells after 4 days by MTT method; type: functional, cell-based; conditions: P388, 96 h

Compound	IC50 (P388 [1])	Activity [2]	IC50 [3]	IC50 [4]	IC50 [5]	IC50 [6]	IC50 [7]	IC50 (P388 [8])
CC[C@@]1(O)C(=O)OCc2c1cc1n(c2=O)Cc2cc3ccccc3nc2-1 [CAMPTOTHECIN]	> 10000 nM	0.2	> 10000 nM	4 nM	–	–	–	–
COc1cc2c(CCN(C)C)cc3c4cc5c(cc4ncc3c2cc1OC)OCO5	300 nM	0.5	450 nM	30 nM	80 nM	25 nM	70 nM	30 nM
COc1cc2c(/C=C/CN(C)C)cc3c4cc5c(cc4ncc3c2cc1OC)OCO5	37 nM	7.7	83 nM	45 nM	370 nM	160 nM	290 nM	30 nM
COc1cc2c(=O)n(CCN(C)C)c3c4cc5c(cc4ncc3c2cc1OC)OCO5	–	0.3	900 nM	2 nM	2 nM	5 nM	6 nM	–
COc1cc2c(/C=C/CCN(C)C)cc3c4cc5c(cc4ncc3c2cc1OC)OCO5	60 nM	15	220 nM	300 nM	400 nM	320 nM	320 nM	30 nM
COc1cc2c(C(=O)N(C)C)cc3c4cc5c(cc4ncc3c2cc1OC)OCO5	> 10000 nM	1.1	> 10000 nM	600 nM	700 nM	600 nM	380 nM	480 nM
COc1cc2c(CC[N+](=O)[O-])cc3c4cc5c(cc4ncc3c2cc1OC)OCO5	290 nM	7.7	300 nM	380 nM	440 nM	300 nM	490 nM	280 nM
CCc1c2c(nc3ccc(O)cc13)-c1cc3c(c(=O)n1C2)COC(=O)[C@]3(O)CC [7-ETHYL-10-HYDROXYCAMPTOTHECIN]	–	–	–	–	46 nM	4 nM	300 nM	–
COc1cc2c(C(O)CCCN(C)C)cc3c4cc5c(cc4ncc3c2cc1OC)OCO5 (centres undefined)	510 nM	9.2	2100 nM	300 nM	1900 nM	170 nM	550 nM	410 nM
COc1cc2c3cnc4cc5c(cc4c3c(=O)n(CCN(C)C)c2cc1OC)OCO5	15 nM	0.6	210 nM	0.7 nM	4 nM	3 nM	4 nM	–
CC[C@@]1(O)C(=O)OCc2c1cc1n(c2=O)Cc2cc3c(CN(C)C)c(O)ccc3nc2-1 [TOPOTECAN]	–	–	–	–	440 nM	40 nM	440 nM	–
COc1cc2c(CO)cc3c4cc5c(cc4ncc3c2cc1OC)OCO5	30 nM	0.25	30 nM	30 nM	75 nM	45 nM	80 nM	30 nM
CNC(=O)c1cc2c3cc4c(cc3ncc2c2cc(OC)c(OC)cc12)OCO4	300 nM	1.2	> 10000 nM	40 nM	100 nM	31 nM	80 nM	30 nM
COc1cc2c(CNCCN(C)C)cc3c4cc5c(cc4ncc3c2cc1OC)OCO5	24 nM	1.9	30 nM	24 nM	27 nM	25 nM	38 nM	20 nM
COc1cc2c(CN(C)C)cc3c4cc5c(cc4ncc3c2cc1OC)OCO5	15 nM	1.1	33 nM	33 nM	170 nM	30 nM	60 nM	5 nM
COc1cc2c(CCCCN(C)C)cc3c4cc5c(cc4ncc3c2cc1OC)OCO5	2100 nM	0.2	2300 nM	1000 nM	4000 nM	400 nM	950 nM	1400 nM
COc1cc2c(CCN)cc3c4cc5c(cc4ncc3c2cc1OC)OCO5	300 nM	0.3	250 nM	25 nM	500 nM	50 nM	200 nM	16 nM
COc1cc2c(C=O)cc3c4cc5c(cc4ncc3c2cc1OC)OCO5	2 nM	4.7	3 nM	3 nM	16 nM	4 nM	19 nM	2 nM
COc1cc2c(C(N)=O)cc3c4cc5c(cc4ncc3c2cc1OC)OCO5	> 10000 nM	0.8	> 10000 nM	4000 nM	> 10000 nM	1500 nM	> 10000 nM	1600 nM
COc1cc2c(CCCN(C)C)cc3c4cc5c(cc4ncc3c2cc1OC)OCO5	100 nM	10	140 nM	180 nM	500 nM	40 nM	180 nM	38 nM
COc1cc2c(/C=C/[N+](=O)[O-])cc3c4cc5c(cc4ncc3c2cc1OC)OCO5	25 nM	9.2	35 nM	33 nM	1780 nM	30 nM	40 nM	25 nM
COc1cc2c(C(=O)NCCN(C)C)cc3c4cc5c(cc4ncc3c2cc1OC)OCO5	320 nM	0.1	1000 nM	3 nM	220 nM	5 nM	60 nM	3 nM
